Calls of active or inactive are those of the source. The rule behind the calls is not given here.
Experiments:
[1] = system: NCI-H1703; experiment: Inhibition of adherence-independent cell growth in human NCI-H1703 cells at 5 uM incubated for 33 days; format: functional, cell-based
[2] = target: Transcriptional coactivator YAP1 (Homo sapiens) (UniProt P46937); experiment: Inhibition of YAP1 in human NCI-H1650 cells assessed as suppression of Sox2 mRNA expression at 5 to 10 uM incubated for 72 hrs by RT-PCR method; format: cell-based
[3] = system: NCI-H1703; experiment: Inhibition of adherence-independent cell growth in human NCI-H1703 cells at 10 uM incubated for 33 days; format: functional, cell-based
[4] = system: NCI-H146; experiment: Inhibition of self-renewal capacity in methotrexate insensitive stem-like side-population cells of human NCI-H146 cells assessed as reduction in number of spheres at 2 uM incubated for 3 days after 7 days methotrexate exposure by sphere formation assay; format: functional
[5] = system: NCI-H146; experiment: Effect on expression of Oct4 mRNA expression in human NCI-H146 cells at 5 to 10 uM incubated for 72 hrs by RT-PCR method; format: cell-based; conditions: nci-h146, 72 h
[6] = target: Transcriptional coactivator YAP1 (Homo sapiens) (UniProt P46937); experiment: Inhibition of YAP1 in human NCI-H146 cells assessed as suppression of Sox2 mRNA expression at 5 to 10 uM incubated for 72 hrs by RT-PCR method; format: cell-based
[7] = system: NCI-H226; experiment: Cytotoxicity in human NCI-H226 cells assessed as reduction in cell viability at 0.5 to 20 uM incubated for 96 hrs by MTT assay; format: functional, cell-based
[8] = system: PC-9; experiment: Cytotoxicity in gefitinib resistant human PC9 cells assessed as reduction in cell viability at 1 to 20 uM by MTT assay; format: functional, cell-based
[9] = system: NCI-H1650; experiment: Inhibition of adherence-independent cell growth in human NCI-H1650 cells at 10 uM incubated for 33 days; format: functional, cell-based
[10] = target: Transcriptional coactivator YAP1 (Homo sapiens) (UniProt P46937); experiment: Inhibition of YAP1 in human NCI-H1703 cells assessed as suppression of vimentin mRNA expression at 5 to 10 uM incubated for 72 hrs by RT-PCR method; format: cell-based
[11] = system: NCI-H1703; experiment: Inhibition of YAP1/TEAD2 interaction in human NCI-H1703 cells assessed as suppression of CTGF mRNA expression at 5 to 10 uM incubated for 72 hrs by RT-PCR method; format: cell-based
[12] = species on record: Homo sapiens; experiment: Cytotoxicity in human 92-1 cells assessed as reduction in cell viability at 0.5 to 20 uM incubated for 72 hrs by MTT assay; format: functional, cell-based
[13] = system: SK-MEL-5; experiment: Cytotoxicity in human SK-MEL-5 cells assessed as reduction in cell viability at 0.5 to 20 uM incubated for 72 hrs by MTT assay; format: functional, cell-based
[14] = system: NCI-H1703; experiment: Effect on expression of Oct4 mRNA expression in human NCI-H1703 cells at 5 to 10 uM incubated for 72 hrs by RT-PCR method; format: cell-based; conditions: nci-h1703, 72 h
[15] = system: NCI-H1650; experiment: Effect on expression of Nanog mRNA expression in human NCI-H1650 cells at 5 to 10 uM incubated for 72 hrs by RT-PCR method; format: cell-based; conditions: nci-h1650, 72 h
[16] = system: A549; experiment: Cytotoxicity in human A549 cells assessed as reduction in cell viability at 0.5 to 20 uM incubated for 72 hrs by MTT assay; format: functional, cell-based
[17] = system: NCI-H1650; experiment: Inhibition of YAP1/TEAD2 interaction in human NCI-H1650 cells assessed as suppression of CTGF mRNA expression at 5 to 10 uM incubated for 72 hrs by RT-PCR method; format: cell-based
[18] = target: Transcriptional coactivator YAP1 (Homo sapiens) (UniProt P46937); experiment: Inhibition of YAP1 in human A549 cells assessed as disruption in YAP1/OCT4 interaction at 5 uM incubated for 72 hrs by immunoprecipitation-Westem blot assay; format: cell-based
[19] = system: NCI-H1650; experiment: Effect on expression of Oct4 mRNA expression in human NCI-H1650 cells at 5 to 10 uM incubated for 72 hrs by RT-PCR method; format: cell-based; conditions: nci-h1650, 72 h
[20] = system: HUVEC; experiment: Inhibition of angiogenic tubule formation in HUVEC at 1 to 5 uM incubated for 18 to 24 hrs; format: functional, cell-based; conditions: Homo sapiens
[21] = target: Transcriptional coactivator YAP1 (Homo sapiens) (UniProt P46937); experiment: Inhibition of YAP1 in human NCI-H1650 cells assessed as suppression of vimentin mRNA expression at 5 to 10 uM incubated for 72 hrs by RT-PCR method; format: cell-based
[22] = target: Transcriptional coactivator YAP1 (Homo sapiens) (UniProt P46937); experiment: Inhibition of YAP1 in human NCI-H1650 cells assessed as disruption in YAP1/OCT4 interaction at 5 uM incubated for 72 hrs by immunoprecipitation-Westem blot assay; format: cell-based
[23] = system: NCI-H1703; experiment: Effect on expression of Nanog mRNA expression in human NCI-H1703 cells at 5 to 10 uM incubated for 72 hrs by RT-PCR method; format: cell-based; conditions: nci-h1703, 72 h
[24] = system: NCI-H1703; experiment: Cytotoxicity in human NCI-H1703 cells assessed as reduction in cell viability at 0.5 to 20 uM incubated for 96 hrs by MTT assay; format: functional, cell-based
[25] = target: Transcriptional coactivator YAP1 (Homo sapiens) (UniProt P46937); experiment: Inhibition of YAP1 in human NCI-H1650 cells assessed as reduction in Sox2 protein expression at 5 uM by luciferase reporter gene assay; format: cell-based
[26] = target: Transcriptional coactivator YAP1 (Homo sapiens) (UniProt P46937); experiment: Inhibition of YAP1 in human NCI-H1650 cells assessed as suppression of fibronectin mRNA expression at 5 to 10 uM incubated for 72 hrs by RT-PCR method; format: cell-based
[27] = system: NCI-H1650; experiment: Inhibition of self-renewal capacity in stem-like side-population cells of human NCI-H1650 cells assessed as reduction in number of spheres at 5 uM incubated for 10 days by sphere formation assay relative to control; format: functional; conditions: NCI-H1650, 240 h
[28] = system: NCI-H146; experiment: Effect on expression of Nanog mRNA expression in human NCI-H146 cells at 5 to 10 uM incubated for 72 hrs by RT-PCR method; format: cell-based; conditions: nci-h146, 72 h
[29] = species on record: Homo sapiens; experiment: Cytotoxicity in human WM1366 cells assessed as reduction in cell viability at 0.5 to 20 uM incubated for 72 hrs by MTT assay; format: functional, cell-based
[30] = system: NCI-H1650; experiment: Cytotoxicity in human NCI-H1650 cells assessed as reduction in cell viability at 0.5 to 20 uM incubated for 72 hrs by MTT assay; format: functional, cell-based
[31] = system: NCI-H1650; experiment: Inhibition of adherence-independent cell growth in human NCI-H1650 cells at 5 uM incubated for 33 days; format: functional, cell-based
[32] = target: Transcriptional coactivator YAP1 (Homo sapiens) (UniProt P46937); experiment: Inhibition of YAP1 in human NCI-H1703 cells assessed as suppression of Sox2 mRNA expression at 5 to 10 uM incubated for 72 hrs by RT-PCR method; format: cell-based
[33] = target: Transcriptional coactivator YAP1 (Homo sapiens) (UniProt P46937); experiment: Inhibition of YAP1 in human NCI-H1703 cells assessed as suppression of fibronectin mRNA expression at 5 to 10 uM incubated for 72 hrs by RT-PCR method; format: cell-based
[34] = system: HCC827; experiment: Cytotoxicity in erlotinib-resistant human HCC827 cells assessed as reduction in cell viability at 1 to 20 uM by MTT assay; format: functional, cell-based
[35] = system: NCI-H1975; experiment: Cytotoxicity in gefitinib and erlotinib resistant human NCI-H1975 cells assessed as reduction in cell viability at 1 to 10 uM incubated for 72 hrs by MTT assay; format: functional, cell-based
[36] = system: NCI-H1650; experiment: Inhibition of self-renewal capacity in stem-like side-population cells of human NCI-H1650 cells assessed as reduction in number of spheres at 1 to 20 uM incubated for 10 days by sphere formation assay; format: functional, cell-based

Sequence of Transcriptional coactivator YAP1 (Homo sapiens) (P46937 whole entry): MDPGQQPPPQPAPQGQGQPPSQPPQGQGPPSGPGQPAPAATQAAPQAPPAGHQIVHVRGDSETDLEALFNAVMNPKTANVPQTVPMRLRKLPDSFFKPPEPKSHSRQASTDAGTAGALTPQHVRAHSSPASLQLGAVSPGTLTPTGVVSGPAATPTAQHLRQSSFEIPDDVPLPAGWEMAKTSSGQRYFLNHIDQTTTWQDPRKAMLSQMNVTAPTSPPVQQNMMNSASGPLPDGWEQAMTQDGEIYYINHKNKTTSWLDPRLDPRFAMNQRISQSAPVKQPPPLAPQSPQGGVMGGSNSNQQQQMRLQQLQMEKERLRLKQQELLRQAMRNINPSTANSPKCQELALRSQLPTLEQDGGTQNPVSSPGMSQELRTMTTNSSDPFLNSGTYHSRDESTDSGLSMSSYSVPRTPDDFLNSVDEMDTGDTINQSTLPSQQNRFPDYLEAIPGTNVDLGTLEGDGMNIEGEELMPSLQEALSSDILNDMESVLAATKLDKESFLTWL

inhibition [2]	inhibition [6]	inhibition [10]	inhibition [18]	Compound	inhibition [1]	inhibition [3]	inhibition [4]	Activity [5]	Activity [7]	Activity [8]	inhibition [9]	inhibition [11]	Activity [12]	Activity [13]	Activity [14]	Activity [15]	Activity [16]	inhibition [17]	Activity [19]	inhibition [20]	other results
Active	Active	Active	Active	COC(=O)[C@H](Cc1ccc(OCc2ccccc2)cc1)NC(=O)CC1CCN(C(=O)CCc2ccc(C#N)cc2)CC1	Active	Active	Active	Non-Toxic	Active	Active	Active	inactive	Active	Active	Non-Toxic	Non-Toxic	Active	inactive	Non-Toxic	Active	inhibition [21]: Active; inhibition [22]: Active; Activity [23]: Non-Toxic; Activity [24]: Active; inhibition [25]: 77.6%; inhibition [26]: Active; inhibition at 5 µM [27]: 80.2%; Activity [28]: Non-Toxic; Activity [29]: Active; Activity [30]: Active; inhibition [31]: Active; inhibition [32]: Active; inhibition [33]: Active; Activity [34]: Active; Activity [35]: Active; inhibition [36]: Active
Active	Active	Active	Active	COC(=O)[C@H](Cc1ccc(OCc2ccccc2)cc1)NC(=O)CC1CCN(C(=O)CCc2ccc(Cl)c(Cl)c2)CC1	Active	Active	Active	Non-Toxic	Active	Active	Active	inactive	Active	Active	Non-Toxic	Non-Toxic	Active	inactive	Non-Toxic	Active	inhibition [21]: Active; inhibition [22]: Active; Activity [23]: Non-Toxic; Activity [24]: Active; inhibition [25]: 85.5%; inhibition [26]: Active; inhibition at 5 µM [27]: 99%; Activity [28]: Non-Toxic; Activity [29]: Active; Activity [30]: Active; inhibition [31]: Active; inhibition [32]: Active; inhibition [33]: Active; Activity [34]: Active; Activity [35]: Active; inhibition [36]: Active

From ChEMBL document CHEMBL4419178, “Yap1 inhibitors that target the interaction of yap1 with oct4” (2018)
